Laboratory results from patent publication US9119886B2, “Immunoconjugates for the treatment of tumours” (MolMed SpA, priority 2002, dated 2015).

Legend:
[1] = test system: B16F1 melanoma; assay: anti-tumor activity (tumor growth) in B16F1 melanoma-bearing mice; type: in vivo, C57BL/6 mice
Procedure: C57BL/6 mice (Charles River Laboratories, Calco, Italy) weighing 16-18 g were challenged with subcutaneous injection in the left flank of 5×10^4 RMA-T or B16F1 living cells; 4-12 days later, the mice were treated with TNF or NGR-TNF solutions (100 μl) followed 2 hours later by administration of melphalan or doxorubicin solution (100 μl). Unless specified, all drugs were administered intraperitoneally (i.p.). All drugs were diluted with 0.9% sodium chloride, containing 100 μg/ml endotoxin-free human serum albumin (Farma-Biagini, Lucca, Italy), except for doxorubicin, which was diluted with 0.9% sodium chloride alone. Tumor growth was monitored daily by measuring the tumors with calipers as previously described (20). Animals were sacrificed before the tumors reached 1.0-1.5 cm in diameter. Tumor sizes are shown as mean±SE (5 animals/group).
We then investigated whether targeted delivery of low doses of NGR-mTNF to tumor vessles could enhance the anti-tumor activity of chemotherapeutic drugs.

[2] = test system: B16F1 cells; assay: 48 hour in vitro cytotoxicity assay on cultured B16F1 cells; type: cell-based, mouse
From the text: To assess whether the synergism depends directly on cytotoxicity against tumor cells we measured the effect of each compound, alone or in combination, on cultured B16F1 cells.

[3] = test system: RMA-T lymphoma; assay: anti-tumor activity (tumor growth) in RMA-T lymphoma-bearing mice; type: in vivo, C57BL/6 mice; settings: RMA-T tumors, treatment at day 10, picogram doses

Molecule | effect on tumor growth, single agent ([1]; melphalan 90 μg, mTNF or NGR-mTNF 0.1 ng i.p.) | killing of cultured cells [2] | dose sufficient to enhance the anti-tumor activity of melphalan and doxorubicin ([1]; systemic administration to mice) [µg/kg] | enhancement of therapeutic effect of cisplatinum [3]
N[C@@H](Cc1ccc(N(CCCl)CCCl)cc1)C(=O)O [Melphalan] | unable to effect the growth of tumors | Neither melphalan or NGR-mTNF, alone or in combination, killed these cells | – | –
NGR-TNF: TNF fused with the C-terminus of CNGRCG; human or murine form not specified at the place (Example 15 used NGR-mTNF) (protein) CNGRCGMSTESMIRDVELAEEALPQKMGGFQNSRRCLCLSLFSFLLVAGATTLFCLLNFGVIGPQRDEKFPNGLPLISSMAQTLTLRSSSQNSSDKPVAHVVANHQVEEQLEWLSQRANALLANGMDLKDNQLVVPADGLYLVYSQVLFKGQGCPDYVLLTHTVSRFAISYQEKVNLLSAVKSPCPKDTPEGAELKPWYEPIYLGGVFQLEKGDQLSAEVNLPKYLDFAESGQVYFGVIAL | – | – | 0.003 to 0.005 | sufficient to enhance the therapeutic effect of cisplatinum
